≈ marks a conversion by molar mass, not a printed value. Bridges are numbered along the chain shown (N, C = ends). Roman numbers before positions name the chains, in order.

This assay relates to Escherichia coli. The assay is described as follows: Antibacterial activity against Escherichia coli TG1 incubated for 12 hrs by microdilution method. The class given is functional.
In turn, “I: H-LSAAHRLAIGRRKK-NH2 / II: H-LSAAHRLAIGRRK / III: H-LSAAHRLAIGRR / IV: H-LSAAHRLAIGRR (amide I:13-IV:C, I:14-II:C, II:13-III:C)” returned a minimum inhibitory concentration (MIC) of 12.5 µM.
“I: H-LSAARSLAIGRRKK-NH2 / II: H-LSAARSLAIGRRK / III: H-LSAARSLAIGRR / IV: H-LSAARSLAIGRR (amide I:13-IV:C, I:14-II:C, II:13-III:C)” showed a minimum inhibitory concentration (MIC) of 12.5 µM.
For the compound “I: H-LSAAHSLAIGRRKK-NH2 / II: H-LSAAHSLAIGRRK / III: H-LSAAHSLAIGRR / IV: H-LSAAHSLAIGRR (amide I:13-IV:C, I:14-II:C, II:13-III:C)”, it took 25 µM to inhibit growth (MIC).
As for “I: H-ALLKRIKTLLKK-NH2 / II: H-ALLKRIKTLLK / III: H-ALLKRIKTLL / IV: H-ALLKRIKTLL (amide I:11-IV:C, I:12-II:C, II:11-III:C)”, the minimum inhibitory concentration (MIC) is 25 µM.
The same measure for “I: H-KLLKFIKTLLKK-NH2 / II: H-KLLKFIKTLLK / III: H-KLLKFIKTLL / IV: H-KLLKFIKTLL (amide I:11-IV:C, I:12-II:C, II:11-III:C)”: 12.5 µM; for `CC[C@H](C)[C@H](NC(=O)[C@H](CO)NC(=O)[C@H](CCCCN)NC(=O)[C@H](CC(C)C)NC(=O)[C@H](CCCCN)NC(=O)[C@@H](N)CC(C)C)C(=O)N[C@H](C(=O)N[C@@H](CO)C(=O)N[C@@H](Cc1c[nH]c2ccccc12)C(=O)NCCCC[C@@H]1NC(=O)[C@H](Cc2c[nH]c3ccccc23)NC(=O)[C@H](CO)NC(=O)[C@@H](NC(=O)[C@@H](NC(=O)[C@H](CO)NC(=O)[C@H](CCCCN)NC(=O)[C@H](CC(C)C)NC(=O)[C@H](CCCCN)NC(=O)[C@@H](N)CC(C)C)[C@@H](C)CC)C(C)NCCCC[C@H](NC(=O)[C@H](CC(C)C)NC(=O)[C@H](CCCCN)NC(=O)[C@@H](N)CC(C)C)C(=O)N[C@@H](CO)C(=O)N[C@@H]([C@@H](C)CC)C(=O)N[C@@H](C(C)C)C(=O)N[C@@H](CO)C(=O)N[C@@H](Cc2c[nH]c3ccccc23)C(=O)NCCCC[C@H](NC(=O)[C@H](Cc2c[nH]c3ccccc23)NC(=O)[C@H](CO)NC(=O)[C@@H](NC(=O)[C@@H](NC(=O)[C@H](CO)NC(=O)[C@H](CCCCN)NC(=O)[C@H](CC(C)C)NC(=O)[C@H](CCCCN)NC(=O)[C@@H](N)CC(C)C)[C@@H](C)CC)C(C)C)C(=O)N[C@H](C(N)=O)CCCCNC1=O)C(C)C` (some centres not stated): 12.5 µM (≈ 57.6 µg/mL); for “I: H-GIIDIAKKLFESWKK-NH2 / II: H-GIIDIAKKLFESWK / III: H-GIIDIAKKLFESW / IV: H-GIIDIAKKLFESW (amide I:14-IV:C, I:15-II:C, II:14-III:C)”: 12.5 µM.

Source of the values: ChEMBL document CHEMBL5614437, “Antibacterial and Anti-Inflammatory Activity of Branched Peptides Derived from Natural Host Defense Sequences” (J Med Chem, 2024).
